Where no end group is shown, it is not given here.

Data on five compounds can be found in patent US20250082625A1, “NOVEL THERAPY” (priority 2016, published 2025).

The subject of experiment [1] is HTB-9 cells. Put plainly: Pre-treatment of HTB-9 bladder epithelial cells before CY17 infection (confocal imaging, ELISA). Conditions: for IL-1β secretion (ELISA, culture supernatants) / SP secretion (ELISA, culture supernatants): pre-treated before CY17 infection. The class given is cell-based, human. As for the experimental part: (§1) Cells were grown on 8-well chamber slides (6×10^4 cells/well, Thermo Fischer Scientific) or in 6-well plates (6×10^5 cells/well) for 16 hours in media supplemented with 10% FBS. Media were removed, and cells were washed with PBS before adding medium without FBS. Cells were infected with bacteria diluted to appropriate concentration in PBS and incubated for one or four hours at 37° C. with 5% CO2.
(§2) The two cell types were first infected with increasing concentrations of the acute cystitis strain E. coli CY-17 (10^2-10^4 cfu/ml) for 1 to 4 hours. NK1R and SP expression was used as a read out of the cellular response. […] A concentration of 10^4 cfu/ml of CY-17 and four hours of infection was chosen for further studies. Under these conditions, there was little cytotoxicity. To further characterize the neuropeptide response to bladder infection, the in vitro analysis was extended to include GALR2, OrxR2 and TAS2R43. Confocal microscopy was used in this instance. Infected cells were fixed (3.7% formaldehyde, 15 min), permeabilized (0.25% triton X-100, 5% FBS, 10 min), blocked (5% FBS, 1 h at RT), incubated overnight with primary antibodies in 5% FBS: Anti-NK1R (1:100, SC-15323, Santa Cruz), anti-SP, (1:200, ORB11399, Biorbyt), anti-orexin receptor 2, (1:200, AB10470, Abcam), anti-TAS2R43, (1:200, AB65513, Abcam), and anti-GALR2 antibodies (1:100, AB136264, Abcam). Appropriate fluorescently labeled secondary antibodies were used (Alexa Fluor® 488 goat anti-rabbit IgG, A-11034; Life Technologies, (1 hour at Room Temperature). After nuclear staining (DRAQ5, 1:1000, Abcam) slides were mounted (Fluoromount, Sigma-Aldrich), imaged by laser scanning confocal microscopy (MSM510 META confocal microscope, Carl Zeiss) and quantified by ImageJ software 1.46r (NIH).
(§3) HTB-9 cells and differentiated SH-SY5Y cells were pre-treated with SR140333, or IL-1RA Anakinra (500 ng/ml) for 30 minutes before infection with CY17 (10^4 cfu/ml, four hours), or treatment with exogenous recombinant SP (R&D System) or IL-1β (Abnova) (20 ng/ml, four hours). After infection, cells were infected with CY17 and the NK1R, SP and IL-1β response was quantified by confocal imaging. IL-1β- and SP secretion was quantified by ELISA, in culture supernatants. In nerve- and bladder epithelial cells, SR140333 inhibited the SP/NK1R response to infection, consistent with an autocrine activation loop involving SP/NK1R as shown by confocal imaging (FIG. 10a). […] SP activated IL-1β expression and secretion in bladder epithelial cells but had no effect on IL-1β on nerve cells. (*=P<0.05, **=P<0.01, ***=P<0.001, Two-tailed t-test for confocal imaging data and Mann-Whitney U-test for ELISAs.
Furthermore, to examine if the effects of NK1R inhibition can be generalized, we used two additional NK1R antagonists (CP99994 and L703.303). HTB-9 cells and differentiated SH-SY5Y cells were pre-treated with SR140333, CP99994, L-703.606 or IL-1RA Anakinra (500 ng/ml) for 30 minutes before infection with CY17 (10^4 cfu/ml, four hours), or treatment with exogenous recombinant SP (R&D System) or IL-1β (Abnova) (20 ng/ml, four hours).
Background: ELISA stands for enzyme-linked immunosorbent assay.

Experiment [2] relates to Asc^−/− mice. The note with it: cited from earlier work.
For experiment [3], the system named is differentiated SH-SY5Y cells. Nature of the experiment: Pre-treatment of differentiated SH-SY5Y nerve cells before CY17 infection (confocal imaging, ELISA). The class given is cell-based, human. As to the method:
as §1, §2, §3
Furthermore, to examine if the effects of NK1R inhibition can be generalized, we used two additional NK1R antagonists (CP99994 and L703.303). […]

Experiment [4] deals with Asc^−/− mice. Nature of the experiment: Anakinra treatment of infected Asc^−/− mice (bladder NK1R/SP staining, disease severity). The class given is in vivo. As for the experimental part:
FIG. 8a The mice were pre-treated with interleukin 1 receptor antagonist (IL1-RA) Anakinra, 30 min before infection and daily after infection with E. coli CFT073 (1 mg in 100 μl of PBS i.p. per mouse). FIG. 8b Reduction in NK1R in Anakinra® treated compared to untreated control mice. Bladder tissue sections from infected Asc^−/− mice treated with Anakinra® were stained for NK1R. […] FIG. 8c Reduction in SP staining in Anakinra® treated Asc^−/− mice compared to untreated mice. […] Sections were obtained from 3 mice per group; one of two experiments is shown. *=p<0.05, **=p<0.01, two tailed t-test). FIG. 8d The disease severity score was reduced by the Anakinra (n=3-4, ***P<0.001, compared to untreated Asc^−/− mice, Fisher's exact test, Reference for (d):.
To confirm the importance of Il1b for the neuropeptide response, susceptible Asc^−/− mice were treated with the IL-1 receptor (IL-1R) antagonist Anakinra® (FIG. 8a). This therapeutic approach was recently shown to be effective against acute cystitis, as Anakinra® attenuated the hyper-inflammatory response to infection and prevented bladder pathology in susceptible mice.
These findings were confirmed in vitro by pretreating nerve cells and bladder epithelial cells with Anakinra (500 ng/ml) followed by CY-17 infection (10^4 CFU/ml, 4 hours).

Experiment [5] has as its system differentiated SH-SY5Y cells. Nature of the experiment: Treatment of differentiated SH-SY5Y nerve cells with exogenous recombinant SP or IL-1β. In kind it is cell-based, human. The note with it: four hours. As for the experimental part: as §3
In experiment [6] the test system is HTB-9 cells. Put plainly: Treatment of HTB-9 bladder epithelial cells with exogenous recombinant SP or IL-1β. The class given is cell-based, human. Conditions: four hours. As for the experimental part: as §3
Setting [7] is: susceptible mice, recently shown.
The mark [8] stands for this setting: infected Asc^−/− mice, 1 mg in 100 μl PBS i.p. 30 min before and daily after infection, vs infected controls without therapy.
Setting [9] is: exogenous recombinant SP 20 ng/ml.

Turning to `COc1ccccc1CN[C@H]1CCCN[C@H]1c1ccccc1` [CP99994, (2S,3S)-N-[(2-Methoxyphenyl)methyl]-2-phenyl-3-piperidinamine], in experiment [1], the “IL-1β secretion (ELISA, culture supernatants)” value (shortened to “IL-1β secretion”) is given as “decreased” and the “SP secretion (ELISA, culture supernatants)” value was “decreased”.

In the case of `Ic1ccccc1CN[C@@H]1C2CCN(CC2)[C@@H]1C(c1ccccc1)c1ccccc1` [L703.606, (2R,3R)-2-benzhydryl-N-[(2-iodanylphenyl)methyl]-1-azabicyclo[2.2.2]octan-3-amine], in experiment [1], the “IL-1β secretion” value is given as “decreased” and the “SP secretion (ELISA, culture supernatants)” value is recorded as “decreased”.

Consider “Anakinra: interleukin 1 receptor antagonist (IL1-RA) Anakinra”, for which, in experiment [2] (compared to untreated Asc^−/− mice, n=3-4, P<0.001), the disease severity score entry is “reduced”. Also, in experiment [2] (setting [7]), the bladder pathology result is recorded as “prevented” and the “hyper-inflammatory response to infection” value is “attenuated”. The NK1R staining result in experiment [3] (Anakinra 500 ng/ml pretreatment, CY-17 infection (10^4 CFU/ml, 4 hours)) is reported as “marked reduction”. Moreover, the “SP/NK1R response to infection (confocal imaging)” value in experiment [3] (pre-treated 30 minutes before CY17 (10^4 cfu/ml, four hours)) is “no effect”. Also, in experiment [4] (setting [8]), the “NK1R response (mucosal NK1R staining, bladder sections)” value is “marked reduction” and the “SP response (mucosal SP staining, bladder sections)” value is on record as “marked reduction”. Also, in experiment [4] (uninfected mice), the “baseline NK1R staining” value is “reduced” and the “baseline SP staining” value is on record as “reduced”. In addition, in experiment [1], the “IL-1β secretion” value is reported as “inhibited”. Besides, the “NK1R expression / staining” value in experiment [1] (pretreatment prior to CY17 infection (10^4 CFU/ml, 4 hours)) is recorded as “marked reduction”.

For “IL-1β: exogenous recombinant IL-1β (Abnova)”, the SP/NK1R expression entry in experiment [5] (exogenous IL-1β 20 ng/ml) and in experiment [6] (exogenous IL-1β 20 ng/ml) was “increased” in each case.

Turning to “SP: exogenous recombinant SP (R&D System), ligand of NK1R (RPKPQQFFGLM-NH2; ends and bridges not checked; UniProt P20366 58-68, looked up)”, in experiment [5] (setting [9]), the IL-1β result was “no effect”. In experiment [6] (setting [9]), the “IL-1β expression and secretion” value is on record as “activated”.
